From patent US6984632B1, “Complexes of paroxetine, with cyclodextrins or cyclodextrin derivatives” (Italfarmaco S.p.A., priority 1999, dated 2006)
≈ marks a conversion by molar mass, not a printed value. Counter-ions that a name gives are not always drawn.

Columns and labels:
Format in all cases: physicochemical
[1] = Solubility in water of complex of Example 9 vs non-complexed paroxetine base; conditions: thermodynamic from solid; deionised water, room temperature, 4 hours stirring, spectrophotometry at 293 nm; read-out: solubility (content of paroxetine base in the solution)
Protocol: 5 g of the product of Example 9 were added to 10 ml of deionised water and kept under stirring for 4 hours at room temperature.
The suspension was then filtered through a cellulose acetate filter in order to remove the undissolved product.
The solution was analysed by 293 nm spectrophotometry against a standard solution of paroxetine base.

[2] = Stability at 60° C., visual examination
Protocol: About 200 mg of paroxetine base and 1 g of the complex of Example 9 (corresponding to about 180 mg of paroxetine base) have each been introduced in a neutral white glass containers and stored, opened, in an oven at 60° C.
The product in the two containers has been visually examined after 48 hours of storage.

[3] = Solubility in water of complexes of Examples 1-5 vs non-complexed paroxetine HCl; conditions: thermodynamic from solid; deionized water, 25° C., 24 hours stirring, spectrophotometry at 295 nm
Protocol: A solubility test was carried out on an amount of the complexes of Examples 1 to 5 corresponding 500 mg of paroxetine HCl and, as a comparison, on 500 mg of non-complexed paroxetine HCl.
Each sample was introduced into a container containing 5 ml of deionized water. The containers, closed with a plug were then set under stirring in a thermostatic bath at 25° C. for 24 hours.
The obtained suspensions were then filtered through a cellulose acetate filter and analysed by spectrophotometry at 295 nm, in comparison with a standard solution of paroxetine.
The results obtained are reported in FIG. 1 wherein the solubility of paroxetine HCl (in mg/ml) is represented as a function of the molar ratio between β-cyclodextrin and paroxetine HCl.

solubility at 4 h [1]	visual appearance ([2]; 48 h 60° C., open glass container)	visual appearance ([2]; Initial)	solubility at 24 h [3]	Compound
300 µg/mL (≈ 911 µM)	Brown liquid	Straw-Yellow liquid	–	Fc1ccc([C@@H]2CCNC[C@H]2COc2ccc3c(c2)OCO3)cc1 [Paroxetine base, Paroxetine]
–	–	–	5000 µg/mL	Fc1ccc([C@@H]2CCNC[C@H]2COc2ccc3c(c2)OCO3)cc1 [non-complexed paroxetine HCl, paroxetine HCl]
